Patent US11851692B2, “Method for preparing an antimycin compound produced by Streptomyces sp.4-7” (priority 2022, dated 2023)
In brackets after ≈: the same amount, converted by molar mass.

Legend:
[1] = tested on: Penicillium oryzae (ATCC 1109); assay: Oxford Cup method antifungal test, Penicillium citrinum; type: cell-based, Penicillium citrinum (ATCC1109)
Experimental: (§1) Preparation of the test sample solution: The test sample was the pure compound I separated and purified in the above Example 1. An appropriate amount of sample was accurately weighed and mixed with DMSO to obtain a solution of the required concentration for testing the antifungal activity. The indicator bacteria used in this experiment were Botrytis cinerea (CGMCC3.3789) and Penicillium citrinum (ATCC1109).
(§2) Oxford Cup method for antifungal test: 100 μL of spore suspension was spread evenly on PDA plates, and Oxford cups were placed in the center of the plates. 100 μL of compound solutions of different concentrations were added into the Oxford cups separately, the concentrations of the compound solutions were 32 μg/mL, 16 μg/mL, 8 μg/mL, 4 μg/mL, 2 μg/mL, 1 μg/mL, and 0.5 μg/mL. DMSO was used as a negative control, and prochloraz of the same concentration was used as a positive control. After incubation at 28° C. for 5 days, the growth of fungi was observed. Four culture plates were set up for each treatment, and the whole experiment was repeated three times.

[2] = Oxford Cup method antifungal test, Botrytis cinerea; type: cell-based, Botrytis cinerea (CGMCC3.3789); details: Staphylococcus, CGMCC3, 120 h; Oxford Cup method, PDA plates, 28° C., 5 days; strain CGMCC 3.3789; read-out: minimum inhibitory concentration (MIC)
Experimental: as §1, §2

[3] = tested on: Staphylococcus griseus (CGMCC 3.3789); assay: as above; type: cell-based, Botrytis cinerea (CGMCC3.3789); details: result in words
Experimental: as §1, §2

## CC[C@@H](C)C[C@H]1C(=O)O[C@H](C)[C@H](NC(=O)c2cccc(NC=O)c2O)C(=O)O[C@@H](C)[C@@H]1CC(=O)C(C)C [Compound I, Antimycin I]
[1]; Penicillium, ATCC1109, 120 h, Oxford Cup method, PDA plates, 28° C., 5 days, strain ATCC 1109, read-out: minimum inhibitory concentration (MIC)
  MIC: 4 µg/mL (≈ 7.71 µM)
[1]; result in words
  resistance activity against Penicillium citrinum (antifungal activity screening): significant resistance activity
[2]
  MIC: 2 µg/mL (≈ 3.86 µM)
[3]
  resistance activity against Botrytis cinerea (antifungal activity screening): significant resistance activity
